Experiment [1] addresses T1, G12D-mutant human KRAS (amino acid residues 1-188) (Homo sapiens, UniProt P01116, G12D).
T1 construct: G12D or G12C-mutant human KRAS (amino acid residues 1-188) with FLAG tag; made in house; host or cells: E. coli
Put plainly: KRAS Binding Disruption Assay (AlphaScreen; biotinylated KRpep-2d analogue or RAF1-RBD), G12D. The following applies: KRAS G12D; geometric mean; read-out: KRAS GMean IC50 (uM) MUTATION: G12D. The method in brief:
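AlphaScreen readout: signal falls as compound displaces biotinylated KRpep-2d analogue or RAF1-RBD from mutant KRAS. Both partners at 5-20 nM, 1 h binding at 25° C, then 10 μg/mL Anti-Flag acceptor and streptavidin donor beads for 1 h. IC50 by nonlinear regression of % inhibition.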
On the technique in general: Bead proximity is the source of the signal in Alpha formats.

Experiment [2] concerns the target T2, G12V-mutant human KRAS (amino acid residues 1-188) (Homo sapiens, UniProt P01116, G12V).
T2 construct: G12V-mutant human KRAS (amino acid residues 1-188) with FLAG tag was purified from E. coli; made in house; host or cells: E. coli
Put plainly: KRAS Binding Competition Assay (AlphaScreen; biotinylated KRpep-2d analogue), G12V. The following applies: geometric mean, read-out: KRAS GMean IC50 (uM) MUTATION: G12V.

The IC50 is the concentration that inhibits the measured activity by half.

On to `CN1CCC[C@H]1COc1nc(N2C[C@H]3CC[C@@H](C2)N3)c2ccc(-c3ccnc(N)c3)cc2n1` [P-0168, 4-(4-((1R,5S)-3,8-diazabicyclo[3.2.1]octan-3-yl)-2-(((S)-1-methylpyrrolidin-2-yl)methoxy)quinazolin-7-yl)pyridin-2-amine], for which the IC50 is 100 to 1000 µM in experiment [1] and 10 to 100 µM in experiment [2].
For `CN1CCC[C@H]1COc1nc(N2C[C@H]3CC[C@@H](C2)N3)c2ccc(-c3ccccc3O)cc2n1` [P-0169, 2-(4-((1R,5S)-3,8-diazabicyclo[3.2.1]octan-3-yl)-2-(((S)-1-methylpyrrolidin-2-yl)methoxy)quinazolin-7-yl)phenol], in that order: 100 to 1000 µM and 100 to 1000 µM.
For `CN1CCC[C@H]1COc1nc(N2CC3CCC(C2)N3)c2ccc(-c3cccc(NS(C)(=O)=O)c3)cc2n1` [P-0170, N-(3-(4-((1R,5S)-3,8-diazabicyclo[3.2.1]octan-3-yl)-2-(((S)-1-methylpyrrolidin-2-yl)methoxy)quinazolin-7-yl)phenyl)meanesulfonamide] the same measures were 100 to 1000 µM and 100 to 1000 µM.
For `CN1CCC[C@H]1COc1nc(N2C[C@H]3CC[C@@H](C2)N3)c2ccc(-c3cccc4[nH]ncc34)cc2n1` [P-0171, 4-((1R,5S)-3,8-diazabicyclo[3.2.1]octan-3-yl)-7-(1H-indazol-4-yl)-2-(((S)-1-methylpyrrolidin-2-yl)methoxy)quinazoline] the same measures were 100 to 1000 µM and 100 to 1000 µM.
For the molecule `Cc1n[nH]c2cccc(-c3ccc4c(N5C[C@H]6CC[C@@H](C5)N6)nc(OC[C@@H]5CCCN5C)nc4c3)c12` [P-0172, 4-((1R,5S)-3,8-diazabicyclo[3.2.1]octan-3-yl)-7-(3-methyl-1H-indazol-4-yl)-2-(((S)-1-methylpyrrolidin-2-yl)methoxy)quinazoline], the IC50 in experiment [1] lay in the range of 10 to 100 µM; in experiment [2] it was 100 to 1000 µM.
For `CN1CCC[C@H]1COc1nc(N2C[C@H]3CC[C@@H](C2)N3)c2ccc(-c3ccc4c(c3)NCCO4)cc2n1` [P-0173, 6-(4-((1R,5S)-3,8-diazabicyclo[3.2.1]octan-3-yl)-2-(((S)-1-methylpyrrolidin-2-yl)methoxy)quinazolin-7-yl)-3,4-dihydro-2H-benzo[b][1,4]oxazine], the IC50 in experiment [1] and in experiment [2] was 10 to 100 µM in each case.
Consider `CN1CCC[C@H]1COc1nc(N2C[C@H]3CC[C@@H](C2)N3)c2ccc(-c3ccc4c(c3)NC(=O)C4)cc2n1` [P-0174, 6-(4-((1R,5S)-3,8-diazabicyclo[3.2.1]octan-3-yl)-2-(((S)-1-methylpyrrolidin-2-yl)methoxy)quinazolin-7-yl)indolin-2-one], for which the figures for the IC50 in experiment [1] and in experiment [2] were 100 to 1000 µM and 10 to 100 µM, respectively.
For `CN1CCC[C@H]1COc1nc(N2C[C@H]3CC[C@@H](C2)N3)c2ccc(-c3c[nH]c4ncccc34)cc2n1` [P-0175, 4-((1R,5S)-3,8-diazabicyclo[3.2.1]octan-3-yl)-2-(((S)-1-methylpyrrolidin-2-yl)methoxy)-7-(1H-pyrrolo[2,3-b]pyridin-3-yl)quinazoline] the same measures were 100 to 1000 µM and 10 to 100 µM.
For `Cc1n[nH]c(C)c1-c1ccc2c(N3C[C@H]4CC[C@@H](C3)N4)nc(OC[C@@H]3CCCN3C)nc2c1` [P-0176, 4-((1R,5S)-3,8-diazabicyclo[3.2.1]octan-3-yl)-7-(3,5-dimethyl-1H-pyrazol-4-yl)-2-(((S)-1-methylpyrrolidin-2-yl)methoxy)quinazoline], in that order: 100 to 1000 µM and 100 to 1000 µM.
Regarding `CN1CCC[C@H]1COc1nc(N2C[C@H]3CC[C@@H](C2)N3)c2ccc(-c3ccc(Cl)c(N)c3)cc2n1` [P-0177, 5-(4-((1R,5S)-3,8-diazabicyclo[3.2.1]octan-3-yl)-2-(((S)-1-methylpyrrolidin-2-yl)methoxy)quinazolin-7-yl)-2-chloroaniline], the IC50 in experiment [1] and in experiment [2] was 10 to 100 µM throughout.
As to `CN1CCC[C@H]1COc1nc(N2C[C@H]3CC[C@@H](C2)N3)c2ccc(-c3cnn4ccccc34)cc2n1` [P-0178, 4-((1R,5S)-3,8-diazabicyclo[3.2.1]octan-3-yl)-2-(((S)-1-methylpyrrolidin-2-yl)methoxy)-7-(pyrazolo[1,5-a]pyridin-3-yl)quinazoline], the concentration for half-maximal inhibition (IC50) in experiment [1] and in experiment [2] was 100 to 1000 µM in each case.
Take `CN1CCC[C@H]1COc1nc(N2C[C@H]3CC[C@@H](C2)N3)c2ccc(-c3cc(O)cc(C(F)(F)F)c3)cc2n1` [P-0179, 3-(4-((1R,5S)-3,8-diazabicyclo[3.2.1]octan-3-yl)-2-(((S)-1-methylpyrrolidin-2-yl)methoxy)quinazolin-7-yl)-5-(trifluoromethyl)phenol]: the IC50 in experiment [1] was 10 to 100 µM; in experiment [2], 100 to 1000 µM.
For `CN1CCC[C@H]1COc1nc(N2C[C@H]3CC[C@@H](C2)N3)c2ccc(-c3cnc(N)nc3C(F)(F)F)cc2n1` [P-0180, 5-(4-((1R,5S)-3,8-diazabicyclo[3.2.1]octan-3-yl)-2-(((S)-1-methylpyrrolidin-2-yl)methoxy)quinazolin-7-yl)-4-(trifluoromethyl)pyrimidin-2-amine], in that order: 10 to 100 µM and 100 to 1000 µM.
For `CN1CCC[C@H]1COc1nc(N2C[C@H]3CC[C@@H](C2)N3)c2ccc(-c3ccc4oc(N)nc4c3)cc2n1` [P-0181, 5-(4-((1R,5S)-3,8-diazabicyclo[3.2.1]octan-3-yl)-2-(((S)-1-methylpyrrolidin-2-yl)methoxy)quinazolin-7-yl)benzo[d]oxazol-2-amine] the same measures were 10 to 100 µM and 10 to 100 µM.
For `CN1CCC[C@H]1COc1nc(N2C[C@H]3CC[C@@H](C2)N3)c2ccc(-c3ccc(CO)s3)cc2n1` [P-0182, (5-(4-((1R,5S)-3,8-diazabicyclo[3.2.1]octan-3-yl)-2-(((S)-1-methylpyrrolidin-2-yl)methoxy)quinazolin-7-yl)thiophen-2-yl)methanol], in that order: 100 to 1000 µM and 100 to 1000 µM.
In the case of `Cc1n[nH]c2cc(-c3ccc4c(N5C[C@H]6CC[C@@H](C5)N6)nc(OC[C@@H]5CCCN5C)nc4c3)ccc12` [P-0183, 4-((1R,5S)-3,8-diazabicyclo[3.2.1]octan-3-yl)-7-(3-methyl-1H-indazol-6-yl)-2-(((S)-1-methylpyrrolidin-2-yl)methoxy)quinazoline], the figures for the IC50 in experiment [1] and in experiment [2] were 100 to 1000 µM and 10 to 100 µM, respectively.
For `CN1CCC[C@H]1COc1nc(N2C[C@H]3CC[C@@H](C2)N3)c2ccc(-c3c(F)ccc4[nH]ccc34)cc2n1` [P-0184, 4-((1R,5S)-3,8-diazabicyclo[3.2.1]octan-3-yl)-7-(5-fluoro-1H-indol-4-yl)-2-(((S)-1-methylpyrrolidin-2-yl)methoxy)quinazoline], in that order: 10 to 100 µM and 100 to 1000 µM.
For `CN1C2CCC1(COc1nc(N3C[C@H]4CC[C@@H](C3)N4)c3ccc(-c4cc(O)cc5ccccc45)cc3n1)CC2` [P-0185, 4-(4-((1R,5S)-3,8-diazabicyclo[3.2.1]octan-3-yl)-2-((7-methyl-7-azabicyclo[2.2.1]heptan-1-yl)methoxy)quinazolin-7-yl)naphthalen-2-ol] the same measures were 0.0001 to 10 µM and 10 to 100 µM.

Source of the values: patent US20230081426A1, “COMPOUNDS AND METHODS FOR KRAS MODULATION AND INDICATIONS THEREFOR” (Plexxikon Inc., priority 2020, published 2023).
